B1: K28L: variant anti-CD19 CAR / junction region with K28L, numbering SEQ ID NO:5 (protein)
chain: FWVLVVVGGVLACYSLLVTVAFIIFWVLRGRKKLLYIFKQPFMRPVQTTQEEDGCSCRFPEEEEGGCEL
modifications: CD28-4-1BB

Experiments:
Assay in all cases: REVEAL Epitope Discovery System in vitro MHC-peptide binding score
HLA-B*08:01 = HLA-B*08:01 (Homo sapiens, UniProt P01889, A93T/A95T/D138N/E176V/E187T/K202T/Q94N/R180D/S35A/V36M/Y33D/Y91F); parameters: key: % binding, normalized to positive control peptide set at 100%; settings: binding normalized to positive control peptide set at 100%, greater than 50 considered good or high affinity binding
Description: (§1) Actual binding affinities for certain HLA class I alleles (A*02:01, A*03:01. A*11:01, and B*08:01) were assessed in vitro for exemplary overlapping 9 amino acid peptide sequences within a portion of the 26 amino acid junction region spanning the CD28 and 4-1BB junction. Specifically, assessment was of a series of overlapping 9-mer peptides derived from the sequence […] (set forth in SEQ ID NO: 7), which contains a portion of the CD28 transmembrane domain and 4-1BB costimulatory domain spanning the junction between the domains (bond joining the two amino acids noted in underline). In addition, a series of overlapping 9-mer peptides of each of a number of different variants of this portion also were assessed, each variant containing a mutation or mutations in this region as described in Example 2.
(§2) The various 9-mer overlapping peptides were synthesized and their purity tested by MALDI-TOF Mass Spectrometry. The synthetic peptides were then incubated with recombinant MHC molecules to assess binding properties using the REVEAL Epitope Discovery System, which is a high-throughput binding assay that measures the degree to which each peptide is able to stabilize a ternary MHC-peptide complex (ProImmune, Oxford, United Kingdom). Each peptide was separately tested for this ability with respect to each of the HLA class I alleles, normalized to the degree observed for a positive control (known T cell epitope for the relevant allele). The results are reported as a score, in which the binding was normalized to the positive control peptide set at 100%.

HLA-A*11:01 = HLA-A*11:01 (Homo sapiens, UniProt P04439, A114D/D185E/E176A/F33Y/L180Q/S129P/T187R); parameters: key: % binding, normalized to positive control peptide set at 100%; settings: binding normalized to positive control peptide set at 100%, greater than 50 considered good or high affinity binding
Description: as §1, §2

HLA-A*02:01 = HLA-A*02:01 (Homo sapiens, UniProt P04439, D140Y/D185E/D98H/E176V/E277Q/G131W/G231S/I119V/I121R/I166T/I218V/L300P/L318F/N151K/N90K/P208A/P217A/Q86G/Q94H/R138H/R169H/T345S); settings: for A*02:01 In Vitro Score: REVEAL score, positive control peptide set at 100%, greater than 50 = good or high affinity binding
Description: as §1, §2

HLA-A*03:01 = HLA-A*03:01 (Homo sapiens, UniProt P04439); settings: positive control peptide set at 100%, greater than 50 = good or high affinity binding
Description: as §1, §2

Molecule | B*08:01 In Vitro Score (HLA-B*08:01) | A*11:01 In Vitro Score (HLA-A*11:01) | A*02:01 In Vitro Score (HLA-A*02:01) | A*03:01 In Vitro (HLA-A*03:01) | predicted or actual binding affinity or score for HLA class I (HLA-A*02:01; for at least one HLA allele (A*02:01, A*03:01, A*11:01, B*08:01) and/or at least one peptide, in silico or in vitro)
AFIIFWVAR [9-mer variant junction peptide, K28A] | 0.20 | 51.80 | 2.20 | 0.50 | –
AFIIFWVHR [9-mer variant junction peptide, K28H] | 0.30 | 34.90 | 0.30 | 0.30 | –
AFIIFWVSR [9-mer variant junction peptide, K28S] | 0.30 | 54.00 | 4.50 | 0.30 | –
FIIFWVHRG [9-mer variant junction peptide, K28H] | 0.20 | 0.90 | 37.30 | 0.00 | –
FWVARGRKK [9-mer variant junction peptide, K28A] | – | 8.90 | – | – | –
FWVKRGLKK [9-mer variant junction peptide, R31L] | 6.30 | – | 9.40 | – | –
FWVKRGNKK [9-mer variant junction peptide, R31N] | – | – | 8.70 | – | –
IFWVARGRK [9-mer variant junction peptide, K28A] | 0.00 | 34.90 | 1.00 | 53.70 | –
IFWVHRGRK [9-mer variant junction peptide, K28H] | 0.10 | 36.60 | 7.10 | 37.80 | –
IFWVKRGAK [9-mer variant junction peptide, R31A] | 2.20 | 69.70 | 13.80 | 22.00 | –
IFWVKRGHK [9-mer variant junction peptide, R31H] | 3.20 | 30.90 | 2.20 | 9.00 | –
IFWVKRGLK [9-mer variant junction peptide, R31L] | 58.30 | 61.10 | 2.40 | 26.90 | –
IFWVKRGNK [9-mer variant junction peptide, R31N] | 0.10 | 45.90 | 3.50 | 8.00 | –
IFWVKRGSK [9-mer variant junction peptide, R31S] | 1.20 | 47.90 | 2.40 | 10.40 | –
IFWVQRGAK [9-mer variant junction peptide, K28Q/R31A] | 0.20 | 61.30 | 11.70 | 17.00 | –
IFWVQRGNK [9-mer variant junction peptide, K28Q/R31N] | 0.10 | 67.50 | 16.10 | 23.20 | –
IFWVQRGRK [9-mer variant junction peptide, K28Q] | 0.00 | 128.50 | 6.10 | 36.70 | –
IFWVSRGRK [9-mer variant junction peptide, K28S] | 0.00 | 39.20 | 1.30 | 39.20 | –
IIFWVARGR [9-mer variant junction peptide, K28A] | 0.30 | 70.60 | 9.60 | 18.60 | –
IIFWVHRGR [9-mer variant junction peptide, K28H] | 0.20 | 77.50 | 4.70 | 30.10 | –

Molecule | B*08:01 In Vitro Score (HLA-B*08:01) | A*11:01 In Vitro Score (HLA-A*11:01) | A*02:01 In Vitro Score (HLA-A*02:01) | A*03:01 In Vitro (HLA-A*03:01) | predicted or actual binding affinity or score for HLA class I (HLA-A*02:01; for at least one HLA allele (A*02:01, A*03:01, A*11:01, B*08:01) and/or at least one peptide, in silico or in vitro)
IIFWVKRGA [9-mer variant junction peptide, R31A] | 0.90 | 22.60 | 85.90 | 42.90 | –
IIFWVKRGL [9-mer variant junction peptide, R31L] | 1.70 | 32.40 | 82.20 | 15.90 | –
IIFWVKRGN [9-mer variant junction peptide, R31N] | 0.90 | 42.10 | 9.30 | 4.30 | –
IIFWVKRGR [9-mer of CD28/4-1BB junction region, mutation none] | 0.00 | 54.50 | 1.70 | 24.30 | –
IIFWVKRGS [9-mer variant junction peptide, R31S] | 0.40 | 100.00 | 13.60 | 16.20 | –
IIFWVLRGR [9-mer variant junction peptide, K28L] | 0.40 | 35.20 | 8.40 | 2.80 | –
IIFWVQRGA [9-mer variant junction peptide, K28Q/R31A] | 0.20 | 56.50 | 95.30 | 2.70 | –
IIFWVQRGR [9-mer variant junction peptide, K28Q] | 0.10 | 72.80 | 5.80 | 18.00 | –
IIFWVSRGR [9-mer variant junction peptide, K28S] | 0.00 | 68.90 | 2.60 | 25.30 | –
VAFIIFWVK [9-mer of CD28/4-1BB junction region, mutation none] | 0.30 | 109.20 | 0.70 | 1.50 | –
VAFIIFWVR [9-mer variant junction peptide, K28R] | 0.10 | 34.60 | 1.20 | 0.70 | –
VAFIIFWVS [9-mer variant junction peptide, K28S] | 0.10 | 25.10 | 70.60 | 0.70 | –
WVARGRKKL [9-mer variant junction peptide, K28A] | 32.40 | 13.80 | 8.80 | 1.30 | –
WVKRGAKKL [9-mer variant junction peptide, R31A] | 34.10 | 4.60 | 4.70 | 4.10 | –
WVKRGHKKL [9-mer variant junction peptide, R31H] | 47.60 | 2.80 | 3.90 | 1.40 | –
WVKRGNKKL [9-mer variant junction peptide, R31N] | 65.90 | 4.10 | 2.40 | 0.90 | –
WVKRGSKKL [9-mer variant junction peptide, R31S] | 56.10 | 11.80 | 3.00 | 1.90 | –
WVQRGNKKS [9-mer variant junction peptide, mutation printed K28Q/L34S] | – | 5.00 | – | – | –
B1 | – | – | – | – | reduced predicted or actual binding affinity or score

Reference: patent US12139526B2, “Modified chimeric receptors and related compositions and methods” (Juno Therapeutics, Inc., priority 2015, dated 2024)
